From patent US6794383B2, “Heart muscular cell apoptosis inhibitors and remedies/preventives for heart diseases” (Takeda Chemical Industries, Ltd., priority 2000, dated 2004)

system: phosphorylated STAT3 (Tyr705) / gp130 signal; assay: Enhancing action on gp130 signal: LIF-induced phosphorylation of STAT3 (Tyr705) by immunoblotting; type: cell-based, rat; conditions: 0.01-10 μM Compound 1 with 10 U/ml human LIF, 30 minutes, primary heart muscle cells from newborn rats, FIG. 1
Description: STAT3 (signal transducers and activators of transcription-3) is a primary positive regulatory factor involved in transmission of gp130 signal. Phosphorylation of the tyrosine residue at the 705th position (Tyr705) is essential for activation of STAT3. Accordingly, this phosphorylation can be used as an indicator of activation of STAT3, that is, of an enhancing action on gp130 signal.
Primary heart muscle cells derived from newborn rats were stimulated with a small amount of LIF (Leukemia inhibitory factor) to induce gp130 signal in the presence of a test compound (Compound 1 obtained in Reference Example 1). Phosphorylation of Tyr705 was examined by immunoblotting with an antibody specifically recognizing phosphorylated STAT3, to confirm the enhancing action of the test compound on gp130 signal.
The primary heart muscle cells derived from newborn rats, obtained in the method of Experimental Example 1, were suspended at a density of 5×10^6 cells/ml in Medium 199 containing 10% fetal bovine serum, then put to a 12-well plate (ASAHI TECHNO GLASS CORPORATION) in a volume of 2.0 ml/well, and cultured for 1 day in a 5% CO2 incubator set at 37° C. […]

SMILES | phosphorylation of STAT3 induced by LIF
O=c1nc(-c2ccccn2)sc2ccccc12 [Compound 1, 2-(2-Pyridyl)-4H-1,3-benzothiazin-4-one] | can further promote phosphorylation of STAT3

system: primary heart muscle cells derived from newborn rats; assay: Inhibitory activity on heart muscle cell apoptosis (serum-free culture, viable cell number by WST-8); type: cell-based, rat; conditions: mean ± SD of three independent experiments; concentration required to increase the mean viable cell number by 30% vs absence of test compound; serum-free Medium 199, 4 days
Description: Newborn rats (within 1 day after birth) were obtained from pregnant Wister rats purchased from Charles River, anesthetized under ether, and sterilized with 70% ethanol, and then their hearts were excised with tweezers. The excised hearts were washed with a phosphate-buffered physiological saline (T900; Takara) and cut into pieces with surgical scissors. These tissue pieces were washed 4 to 5 times with a phosphate-buffered physiological saline to remove a majority of blood-derived non-heart muscle cells. To the tissue pieces derived from 10 newborns, 5 ml of enzyme solution (1.25 mg trypsin (Difco) and 0.25 mg collagenase (Sigma) per ml of phosphate-buffered saline (PBS)) was added and the mixture was stirred with a stirrer at 37° C. for 15 mins. Another 2.5 ml enzyme solution was then added twice repeatedly at a 15-minutes interval. Then, Medium 199 (Gibco) containing 10% fetal calf serum (Biowiker) was added in a half volume of the enzyme solution to terminate the enzyme reaction. The cells were filtered through a Cell Strainer (Falcon) and then centrifuged at 400×g for 5 minutes, whereby the cells were collected.
The cells thus collected from 10 newborns were suspended in 50 ml Medium 199 containing 10% fetal calf serum, plated onto 100 mm Petri dishes (Iwaki) in a volume of 10 ml/dish and cultured for 1 hour in a CO2 incubator set at 5% CO2 and 37° C. The cells were then recovered, filtered through a Cell Strainer and centrifuged at 400×g for 5 minutes to collect the primary heart muscle cells derived from newborn rats.
Then, the heart muscle cells from 10 newborn rats were suspended in 2 ml low-isotonic solution (prepared by dissolving 8.29 g NH4Cl, 1.0 g KHCO3, 37 mg EDTA/2Na (ethylenediaminetetraacetic acid disodium)(Dojindo) in 1 L of water) and left for 3 minutes to disrupt erythrocytes. After 10 ml Medium 199 containing 10% fetal calf serum was added thereto, the primary heart muscle cells from newborn rats were collected by centrifugation at 400×g for 5 minutes. The cells were suspended in Medium 199 containing 10% fetal calf serum and then filtered through a cell strainer. After 0.3% trypan blue was added to, and mildly mixed with, an aliquot of the resulting cell suspension, the number of heart muscle cells was counted on an erythrocyte counting plate.
The primary heart muscle cells from newborn rats were suspended at a density of 3×10^6 cells/ml in Medium 199 containing 10% fetal calf serum, put onto a 96-well plate in a volume of 0.1 ml/well, and then cultured in a CO2 incubator set at 5% CO2 and 37° C. After the plate was stirred with a micromixer (Taiyo Kagaku Kogyo), the medium was exchanged 3 times with serum-free Medium 199, and then test compounds (Compounds 1 to 5 obtained in Reference Examples) were added thereto. The cells were cultured for additional 4 days to induce apoptosis. Then, fetal calf serum was added thereto at a concentration of 10%, and the cells were further cultured for about 17 hours in a CO2 incubator set at 5% CO2 and 37° C. Finally, the number of viable cells was determined with Cell Counting Kit (Dojindo) using WST-8 (2-(2-methoxy-4-nitrophenyl)-3-(4-nitrophenyl)-5-(2,4-disulfophenyl)-2H-tetrazolium, monosodium salt) as the coloring substrate to determine the inhibition of the heart muscle cell apoptosis.
The above-mentioned exeriment was tripicated in an independent manner. […]

SMILES | Minimal Effective Concentration
O=c1nc(-c2ccccn2)sc2ccccc12 [Compound 1, 2-(2-Pyridyl)-4H-1,3-benzothiazin-4-one] | 0.015 ± 0.011 µM
O=c1nc(-c2cccnc2)sc2ccccc12 [Compound 2, 2-(3-pyridyl)-4H-1,3-benzothiazin-4-one] | 0.041 ± 0.018 µM
O=c1nc(-c2ccncc2)sc2ccccc12 [Compound 3, 2-(4-pyridyl)-4H-1,3-benzothiazin-4-one] | 0.014 ± 0.0099 µM
CCOC(=O)/C=C1\NC(=O)c2ccccc2S1 [Compound 4, Ethyl 2-(4-oxo-3,4-dihydro-2H-1,3-benzothiazin-2-ylidene)acetate] | 0.019 ± 0.0078 µM
O=C1N/C(=C\C(=O)N2CCCCC2)Sc2ccccc21 [Compound 5, 2-[2-oxo-2-(1-piperidinyl)ethylidene]-2,3-dihydro-4H-1,3-benzothiazin-4-one] | 0.06 ± 0.041 µM
